Data: patent US10544110B2, “Small molecule inhibitors of the nuclear translocation of androgen receptor for the treatment of castration-resistant prostate cancer” (University of Pittsburgh-Of the Commonwealth System of …, priority 2013, dated 2020)

Key:
[1] = test system: 22Rv 1 xenograft tumors; test: 22Rv1 xenograft tumor growth; assay type: in vivo; conditions: castrated SCID mice, daily IP 10 mg/kg and 75 mg/kg
Description: FIG. 11 is a graph showing the effect of compound JJ-450 at indicated concentrations on 22Rv 1 xenograft tumor volume. JJ-450 was injected i.p. daily.
22Rv 1 xenograft tumors were established in SCID mice by subcutaneous injection of 2×10^6 cells in Matrigel. Once the tumors reached ˜150 μL in volume, the mice were castrated and randomized into 3 groups for daily IP injection of vehicle (n=11), 10 mg/kg (n=11) and 75 mg/kg (n=11) groups. Injection of JJ-450 was initiated at time of castration. Tumor volumes were measured 3 times every week. […] Error bars, SEM.

[2] = test system: LNCaP xenograft tumors; test: LNCaP xenograft tumor growth; assay type: in vivo; conditions: castrated SCID mice, oral gavage 10 or 75 mg/kg or IP 10 mg/kg, started 2 weeks after castration
Description: FIG. 12 is a graph showing the effect of compound JJ-450 at indicated concentrations and administration route on LNCaP xenograft tumor volume. JJ-450 was administered 6 times, from Monday to Saturday, every week
LNCaP xenograft tumors were established in SCID mice by subcutaneous injection of 2×10^6 cells in Matrigel. Once the tumors reached ˜200 ul in volume, the mice were castrated and randomized into 4 groups: oral gavage of vehicle (n=6), oral gavage at 10 mg/kg (n=6), IP injection at 10 mg/kg (n=8), and oral gavage at 75 mg/kg (n=7) groups. Administration of JJ-450 was started 2 weeks after castration. Tumor volumes were measured twice every week. […] Error bars, SEM.

[3] = test system: AR transcriptional activity (PSA promoter activity); test: PSA luciferase assay in C4-2-PSA-rl cells (Dual-Glo luciferase system); conditions: C4-2-PSA-rl cells
Description: C4-2-PSA-rl cells were seeded in 24-well plates such that they reached 75-80% cell monolayer density after 24 h. […] Each compound was tested in at least two independent experiments. Luciferase activity was assayed using the Dual-Luciferase® Reporter Assay System (Promega) using LMax II Microplate Reader (Molecular Devices). The luciferase assay results were acquired using SoftMax Pro5.45 software (Molecular Devices) and analyzed using GraphPad Prism. PSA6.1-luc activity was normalized to the Renilla luciferase activity. Relative luciferase activity was calculated as the quotient of androgen-induced PSA-firefly/Renilla luciferase activity. Since PSA promoter activity correlates to AR transcriptional activity, inhibition of AR will result in decreased PSA-luciferase activity.

[4] = test system: 22Rv1; test: Effectiveness against androgen-dependent prostate cancer cell line 22Rv1; assay type: cell-based

| SMILES | 22Rv1 xenograft tumor growth (tumor volume) [1] | LNCaP xenograft tumor growth (tumor volume) [2] | IC50 ([3]; 24 h, 24 h treatment, 1 nM R1881, mean and SD of 2-6 independent experiments) [nM] | activity in PSA luciferase assay (in words) ([3]; up to 25 μM) | effectiveness against 22Rv1 [4] |
| --- | --- | --- | --- | --- | --- |
| Cc1ccc(Cl)cc1N1CCN(C(=O)[C@@H]2C[C@@H]2c2ccc(F)cc2)CC1 (racemic) [JJ-450, (4-(5-Chloro-2-methylphenyl)piperazin-1-yl)((1RS,2SR)-2-(4-fluorophenyl)cyclopropyl)-methanone] | significantly inhibited tumor growth | significantly inhibited tumor growth | 2700 ± 1100 | significantly more potent than 1 |  |
| CNC(=O)c1ccc(N2C(=S)N(c3ccc(C#N)c(C(F)(F)F)c3)C(=O)C2(C)C)cc1F [MDV3100, enzalutamide] |  |  |  |  | ineffective |
